Drawing on US8916206B2, “Nanoparticles containing water-soluble non-peptide low-molecular weight drug” (LTT Bio-Pharma Co., Ltd., priority 2005, dated 2014), this text covers Inflammation rate for one compound.

The subject of assay [1] is adjuvant arthritis rats. In words: Suppression of adjuvant arthritis, Example 9 (left hind leg volume, water displacement). The class given is in vivo, Lewis rats. The following applies: average of 7 rats. The procedure:
(§1) Fifty microliters of an incomplete Freund's adjuvant solution (DIFCO) containing 6 mg/mL of M. Butyricum Dessicated (DIFCO) was subcutaneously injected into the left hind paw of 7-week-old Lewis rats, weighing 130 to 160 g, under anesthesia with ether. The animals were divided into groups so that there is no significant difference in the volume of the left hind leg between the groups. 14 days after administration of M. Butyricum, one group was intravenously administered a single dose of the nanoparticles of the present invention encapsulating betamethasone phosphate (equivalent to 50 μg betamethasone). As controls, other groups were intravenously administered the same amount of an aqueous betamethasone phosphate solution or the PLA nanoparticles encapsulating betamethasone phosphate (nanoparticles described in Example 2 of International Patent Publication No. WO 2004/84871), each administered in a single dose.
(§2) The ability of the nanoparticles to suppress arthritic inflammation was analyzed by the water displacement technique by measuring the volume of the left hind legs before and after the administration of the nanoparticles.
(§3) Inflammation rate shown in Table 6 was determined with respect to the leg volume of the control group (=100) and calculated by the following equation: Inflammation rate(%)=(measured leg volume−leg volume without adjuvant)/(initial leg volume−leg volume without adjuvant)×100
As in Example 5, the ability of nanoparticles to suppress adjuvant arthritis was evaluated. Each inflammation rate is the average of 7 rats. Nanoparticles of the present invention containing betamethasone phosphate equivalent to 40 μg betamethasone were intravenously administered in a single dose.
As a control, another group of rats was intravenously administered the same amount of an aqueous solution of betamethasone phosphate in a single dose.

The test system of assay [2] is adjuvant arthritis rats. As to the kind of experiment: Suppression of adjuvant arthritis, Example 5 (left hind leg volume, water displacement). The class given is in vivo, Lewis rats. The settings on record: average of 4 rats. As for the experimental part:
as §1, §2, §3
Each inflammation rate is the average of 4 rats.

In the case of `C[C@H]1C[C@H]2[C@@H]3CCC4=CC(=O)C=C[C@]4(C)[C@@]3(F)[C@@H](O)C[C@]2(C)[C@@]1(O)C(=O)COP(=O)(O)O` [betamethasone phosphate], the Inflammation rate is on record as 81% in the assay with adjuvant arthritis rats [1] (1 day after single i.v. dose equivalent to 40 μg betamethasone); 83% in the assay on adjuvant arthritis rats [1] (2 days after single i.v. dose equivalent to 40 μg betamethasone); 83% in the assay on adjuvant arthritis rats [1] (3 days after single i.v. dose equivalent to 40 μg betamethasone); 78% with adjuvant arthritis rats [1] (4 days after single i.v. dose equivalent to 40 μg betamethasone); 78% in the assay on adjuvant arthritis rats [1] (5 days after single i.v. dose equivalent to 40 μg betamethasone); 79% in the assay on adjuvant arthritis rats [1] (7 days after single i.v. dose equivalent to 40 μg betamethasone). Moreover, the Inflammation rate with adjuvant arthritis rats [1] (9 days after single i.v. dose equivalent to 40 μg betamethasone) amounted to 79%; in the assay with adjuvant arthritis rats [2] (1 day after single i.v. dose equivalent to 50 μg betamethasone), 83%; in the assay on adjuvant arthritis rats [2] (2 days after single i.v. dose equivalent to 50 μg betamethasone), 80%; in the assay on adjuvant arthritis rats [2] (3 days after single i.v. dose equivalent to 50 μg betamethasone), 82%; with adjuvant arthritis rats [2] (4 days after single i.v. dose equivalent to 50 μg betamethasone), 83%; in the assay with adjuvant arthritis rats [2] (6 days after single i.v. dose equivalent to 50 μg betamethasone), 84%. Besides, the Inflammation rate in the assay on adjuvant arthritis rats [2] (8 days after single i.v. dose equivalent to 50 μg betamethasone) turned out to be 81%.
